Test results as given in US12570988B2, “Aptamers that bind thiamine analogs and derivatives” (MeiraGTx Gene Regulation Limited, priority 2020, dated 2026).
Where a chain is given by its changes, count along the chain named.

Assays:
[1] = test system: riboswitch TPPz (A. tabrizica thiC TPP aptamer); experiment: Luciferase reporter with TPPz riboswitch in HEK 293 cells; type: cell-based, human; conditions: FIG. 1
From the text: (§1) Riboswitch constructs: Aptamers were synthesized by Integrated DNA Technologies, Inc. and Golden Gate cloning strategy (New England Biolabs, NEB) was used to clone the synthesized aptamer sequences into intron-exon-intron cassette to replace the guanine aptamer in the G17 riboswitch cassette (see SEQ ID NO: 15 recited in WO 2016/126747, which is incorporated herein in its entirety) with a TPP aptamer from the Alishewanella tabrizica thiC gene (Microbiol Res. 2017 January; 195:71-80) or a TPP aptamer from the Escherichia coli thiM gene (Structure. 2006 September; 14(9):1459-68), generating riboswitch TPPz and TPPm, respectively.
(§2) Transfection: 3.5×10^4 human embryonic kidney (HEK) 293 cells were plated in a 96-well flat bottom plate the day before transfection. Plasmid DNA (500 ng) was added to a tube or a 96-well U-bottom plate. Separately, TransIT-293 reagent (Mirus; 1.4 μL) was added to 50 μL Optimem I media (Life Technologies) and allowed to sit for 5 minutes at room temperature (RT). Then, 50 μL of this diluted transfection reagent was added to the DNA, mixed, and incubated at RT for 20 min. Finally, 7 μL of this solution was added to a well of cells in the 96-well plate. Four hours after transfection, medium containing transfection solution was replaced by medium containing either TPP, fursultiamine, prosultiamine, bisbentiamine, beclotiamine hydrochloride, or sulbutiamine as aptamer inducers.
(§3) Firefly luciferase assay of cultured cells: Twenty-four hours after media change, plates were removed from the incubator, and equilibrated to RT for several minutes on a lab bench, then aspirated. Glo-lysis buffer (Promega, 100 μL, RT) was added, and the plates allowed to remain at RT for at least 5 minutes. Then, the well contents were mixed by 50 μL trituration, and 20 μL of each sample was mixed with 20 μL of bright-glo reagent (Promega) that had been diluted to 10% in glo-lysis buffer. 96 wells were spaced on an opaque white 384-well plate. Following a 5 min incubation at RT, luminescence was measured using a Tecan machine with 500 ms read time. The luciferase activity was expressed as mean arbitrary light units (ALU)±S.D., and fold induction was calculated as the quotient of the luciferase activity obtained from cells with TPP or analog treatment divided by the luciferase activity obtained from cells without TPP or analog treatment.

[2] = test system: riboswitch TPPm (E. coli thiM TPP aptamer); experiment: Luciferase reporter with TPPm riboswitch in HEK 293 cells; type: cell-based, human; conditions: FIG. 1
From the text: as §1, §2, §3

[3] = test system: riboswitch 15D10; experiment: Luciferase reporter with 15D10 riboswitch (Luci-15D10) in HEK 293 cells; type: cell-based, human; conditions: HEK 293 cells; for effect on luciferase expression from Luci-15D10: FIG. 9A, 9C; for fold induction at 50 µM: Homo sapiens, HEK293, 24 h, Table 2, read-out: Fold increase in riboswitch 15D10-regulated luciferase expression, HEK
Summary of the method: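 Cells transfected with riboswitch-luciferase plasmid; 4 h later medium replaced with TPP or thiamine analogs (fursultiamine, prosultiamine, bisbentiamine, beclotiamine, sulbutiamine) as inducers.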

[4] = test system: riboswitch 15D10; experiment: Luciferase reporter with 15D10 riboswitch (Luci-15D10) in AML12 cells; type: cell-based, mouse; conditions: for relative potency in inducing luciferase expression: AML 12 cells, compared with fursultiamine or within groups; for fold induction at 50 µM: Mus musculus, AML12, 24 h, Table 2, read-out: Fold increase in riboswitch 15D10-regulated luciferase expression, AML; for fold induction at 50 µM / luciferase regulation in response to ligand, riboswitch 15D10: AML12 cells; for luciferase regulation in response to ligand, riboswitch 15D10: FIG. 6B
[5] = test system: riboswitch 15D10; experiment: Luci-15D10 luciferase reporter in ARPE-19 cells; type: cell-based, human; conditions: FIG. 9E
[6] = test system: riboswitch comprising aptamer 15A5; experiment: Luciferase reporter with 15A5 riboswitch in AML12 cells; type: cell-based, mouse; conditions: FIG. 6B
[7] = test system: riboswitch 6B4; experiment: In vivo bioluminescence imaging, mice given AAV luci-6B4; set-up: species or system Balb/c mice
From the text: (§4) AAV2.8 viral particle production: The AAV2.8 particles used for the transfection of mice comprised a viral genome derived from AAV2 and a capsid derived from AAV8. The luciferase gene containing an intron-exon-intron cassette with (1) a non-regulatable riboswitch without aptamer (“luci-Con1”, SEQ ID NO:90), (2) a riboswitch cassette comprising aptamer 3H4 (“luci-3H4”, SEQ ID NO:91), or (3) a riboswitch cassette comprising aptamer 6B4 (“luci-6B4”, SEQ ID NO:92), respectively, was cloned into an AAV2 plasmid vector. Expression of the luciferase gene was controlled by a CASI promoter, which includes CMV and ubiquitin C enhancer elements and the chicken β-actin promoter. The viral vector was packaged into AAV8 capsid and produced following manufacture's protocol (Vigene Biosciences).
(§5) Animal study: Male Balb/c mice received a single tail vein injection of 1.0×10^11 or 2.5×10^11 genome copies of the receptive AAV2.8 viral particle. Twenty-eight days after AAV vector delivery, mice were treated intraperitoneally (IP.) with 50 mg/kg prosultiamine. Luciferase activity was measured the day prior to drug dosing, as well as 6 h, 24 h, 48 h and 72 h after drug dosing. After the first administration of prosultiamine, the mice were subjected to three additional rounds of dosing and imaging cycles as follows: Day 36 (after AAV administration):100 mg/kg; day 43: 200 mg/kg; and day 51: 400 mg/kg.
(§6) Noninvasive live animal bioluminescence imaging: Before imaging, mice were anesthetized with 2% isoflurane, and injected with 150 mg/kg body weight of luciferin. At the indicated time point post drug dosing, images were taken within 2 to 5 minutes after luciferin injection using a Bruker Xtreme system. Luciferase activity was expressed as mean photon/s±S.D. (n=5). The fold induction of luciferase gene expression was calculated as the quotient of photon/s obtained from mice treated with prosultiamine divided by the value obtained from mice the day before prosultiamine treatment.

[8] = test system: riboswitch 3H4; experiment: In vivo bioluminescence imaging, mice given AAV luci-3H4; set-up: species or system Balb/c mice
From the text: as §4, §5, §6

[9] = test system: luciferase expression in HEK 293 cells; experiment: Screen of aptamer libraries A1-A3 for gene regulation activity with fursultiamine; type: cell-based, human; conditions: 50 μM fursultiamine, FIG. 4A
Method: Three aptamer libraries A1, A2 and A3, were generated by randomizing nucleotides at 6 positions in, or adjacent to, regions J4-5, J2-4 and J3-2, respectively (see FIG. 3). Single bacterial colonies were picked and plasmids containing riboswitch constructs were screened in HEK 293 cells for improved gene regulation activity in response to 50 μM fursultiamine as compared to riboswitch 14G4. […] These riboswitches comprising re-engineered aptamer sequences also lead to significant enhancements of target gene expression in other cells types, including alpha mouse liver 12 (AML12), C2C12 (murine myoblast cell line), and adult retinal pigment epithelial cell line-19 (ARPE-19) (see FIG. 4B).

[10] = 50 mg/kg IP single dose, six hours after dosing
[11] = 50 mg/kg and 100 mg/kg IP doses
[12] = 200 mg/kg and 400 mg/kg IP doses

`CC(=C(CCOC(=O)C(C)C)SSC(CCOC(=O)C(C)C)=C(C)N(C=O)Cc1cnc(C)nc1N)N(C=O)Cc1cnc(C)nc1N` (stereo in doubt) [sulbutiamine] was tested, and the “effect on luciferase expression, riboswitch TPPz” value (shortened to “effect … riboswitch TPPz”) [1] was “weak or no effects on luciferase expression” and the “effect on luciferase expression, riboswitch TPPm” value (“effect … riboswitch TPPm” below) [2] was “weak or no effects on luciferase expression”.

With `C/C(=C(\CCO)SCOC(=O)C(C)(C)C)N(C=O)Cc1cnc(C)nc1N` [Compound M10, (Z)-((2-(N-((4-Amino-2-methylpyrimidin-5-yl)methyl)formamido)-5-hydroxypent-2-en-3-yl)thio)methyl pivalate] the “effect on luciferase expression from Luci-15D10” value (from here on “effect … from Luci-15D10”) [3] was “increased”, the “relative potency in inducing luciferase expression” value (shortened to “relative potency”) [4] was “more potent than fursultiamine” and the “activity in increasing riboswitch 15D10-regulated luciferase expression” value [5] was “equivalent potency to fursultaimine”.

For `C/C(=C(\CCO)SCOC(=O)C12CC3CC(CC(C3)C1)C2)N(C=O)Cc1cnc(C)nc1N` [Compound M19, (((Z)-2-(N-((4-Amino-2-methylpyrimidin-5-yl)methyl)formamido)-5-hydroxypent-2-en-3-yl)thio)methyl (3r,5r,7r)-adamantane-1-carboxylate], the “fold increase in luciferase expression” value ([3]; 12.5 μM) was 168.7 fold, the “effect … from Luci-15D10” value [3] was “increased” and the “relative potency” value ([3]; compared with fursultiamine or within Formula V/VI groups) was “more potent”. The fold induction at 50 µM [3] was 676, the “relative potency” value [4] was “more potent than fursultiamine” and the fold induction at 50 µM [4] was 330. For the same molecule, the “activity in increasing riboswitch 15D10-regulated luciferase expression” value [5] was “equivalent potency to fursultaimine”.

In the case of `C/C(=C(\CCO)SCOC(=O)c1ccccc1)N(C=O)Cc1cnc(C)nc1N` [Compound M21, (Z)-((2-(N-((4-Amino-2-methylpyrimidin-5-yl)methyl)formamido)-5-hydroxypent-2-en-3-yl)thio)methyl benzoate], the “effect … from Luci-15D10” value [3] is reported as “increased”, the fold induction at 50 µM [3] is reported as 618 and the “relative potency” value [4] is reported as “more potent than fursultiamine”. For the same molecule, the fold induction at 50 µM [4] was 229 and the “activity in increasing riboswitch 15D10-regulated luciferase expression” value [5] was “equivalent potency to fursultaimine”.

`Cc1ncc(C[n+]2csc(CCO[P@](=O)(O)OP(=O)(O)O)c2C)c(N)n1` [TPP, thiamine pyrophosphate] was tested, and the “effect … riboswitch TPPz” value [1] was “regulate luciferase expression”, the “luciferase regulation in response to ligand, riboswitch 15A5” value [6] was “respond very poorly” and the “luciferase regulation in response to ligand, riboswitch 15D10” value [4] was “respond very poorly”. For the same molecule, the “effect … riboswitch TPPm” value [2] was “regulate luciferase expression”.

In the case of `Cc1ncc(C[n+]2csc(CCCl)c2C)c(N)n1.Cl.[Cl-]` [beclotiamine hydrochloride], the “effect … riboswitch TPPz” value [1] is reported as “weak or no effects on luciferase expression” and the “effect … riboswitch TPPm” value [2] is reported as “weak or no effects on luciferase expression”.

With `C/C(=C(\CCOC(=O)c1ccccc1)SS/C(CCOC(=O)c1ccccc1)=C(/C)N(C=O)Cc1cnc(C)nc1N)N(C=O)Cc1cnc(C)nc1N` [bisbentiamine] the “effect … riboswitch TPPz” value [1] was “weak or no effects on luciferase expression” and the “effect … riboswitch TPPm” value [2] was “weak or no effects on luciferase expression”.

With `CCCSS/C(CCO)=C(/C)N(C=O)Cc1cnc(C)nc1N` [prosultiamine] the “effect … riboswitch TPPz” value [1] was “induce luciferase expression”, the “luciferase activity in mice, riboswitch 6B4” value [7, 10] was “significantly increased” and the “time at which induced luciferase activity attenuated to pre-treatment level” value [7, 11] was 24 h. For the same molecule, the “time induced luciferase activity remained” value [7, 12] was ≥ 48 h, the “luciferase regulation in response to ligand, riboswitch 15A5” value [6] was “robustly regulate luciferase expression” and the “luciferase regulation in response to ligand, riboswitch 15D10” value [4] was “robustly regulate luciferase expression”. For the same molecule, the “effect … riboswitch TPPm” value [2] was “induce luciferase expression”, the “luciferase activity in mice, riboswitch 3H4” value [8, 10] was “significantly increased” and the “time at which induced luciferase activity attenuated to pre-treatment level” value [8, 11] was 24 h. The “time induced luciferase activity remained” value [8, 12] was ≥ 48 h.

B1: 1D10: re-engineered aptamer, encoding sequence SEQ ID NO:8 (nucleic acid)
DNA: ACAGGGGTCCGGCCTTTTCATTTGGCGCCGGTGAGATTATACCCTTTGAACCTGTTTACGGATAATGCCGCCGCAGGGAGT
modifications: expressed or natural sequence
For B1, the “fursultiamine-dependent induction compared to parent construct 14G4” value [9] was “increase in fursultiamine-dependent induction”.

B2: 6B4: re-engineered aptamer, encoding sequence SEQ ID NO:14 (nucleic acid)
DNA: B1 DNA with T37G, T38C, T40C, T47G, G48T, A49G
modifications: expressed or natural sequence
B2 was tested, and the “fursultiamine-dependent induction compared to parent construct 14G4” value [9] was “increase in fursultiamine-dependent induction”.

B3: 3H4: re-engineered aptamer, encoding sequence SEQ ID NO:9 (nucleic acid)
DNA: B1 DNA with T37G, T38C, T40C, T57C, C72T
modifications: expressed or natural sequence
B3 was tested, and the “fursultiamine-dependent induction compared to parent construct 14G4” value [9] was “increase in fursultiamine-dependent induction”.

B4: 6G12: re-engineered aptamer, encoding sequence SEQ ID NO:17 (nucleic acid)
DNA: B1 DNA with T37G, T38C, T40C, A49G
modifications: expressed or natural sequence
With B4 the “fursultiamine-dependent induction compared to parent construct 14G4” value [9] was “increase in fursultiamine-dependent induction”.

B5: 6C4: re-engineered aptamer, encoding sequence SEQ ID NO:16 (nucleic acid)
DNA: B1 DNA with A3G, T37G, T38C, T40C, T47C
modifications: expressed or natural sequence
For B5, the “fursultiamine-dependent induction compared to parent construct 14G4” value [9] was “increase in fursultiamine-dependent induction”.

B6: 4H2: re-engineered aptamer, encoding sequence SEQ ID NO:15 (nucleic acid)
DNA: B1 DNA with T37G, T38C, T40C, T47C, A49G
modifications: expressed or natural sequence
In the case of B6, the “fursultiamine-dependent induction compared to parent construct 14G4” value [9] is reported as “increase in fursultiamine-dependent induction”.
